Patent publication US9045563B2, “CXC chemokine receptor 4 (CXCR4) antagonistic polypeptide” (priority 2007, dated 2015)
pKi: −log10 of the molar value. Ends that are not written are not given here.

Key:
CXCR1 = molecular target: T1, CXCR1 (Homo sapiens, UniProt P25024); test: Ca2+ mobilization in HEK EGFP-CXCR1 cells (indo-1); conditions: 50 μM peptide
T1 sequence (P25024 1-350): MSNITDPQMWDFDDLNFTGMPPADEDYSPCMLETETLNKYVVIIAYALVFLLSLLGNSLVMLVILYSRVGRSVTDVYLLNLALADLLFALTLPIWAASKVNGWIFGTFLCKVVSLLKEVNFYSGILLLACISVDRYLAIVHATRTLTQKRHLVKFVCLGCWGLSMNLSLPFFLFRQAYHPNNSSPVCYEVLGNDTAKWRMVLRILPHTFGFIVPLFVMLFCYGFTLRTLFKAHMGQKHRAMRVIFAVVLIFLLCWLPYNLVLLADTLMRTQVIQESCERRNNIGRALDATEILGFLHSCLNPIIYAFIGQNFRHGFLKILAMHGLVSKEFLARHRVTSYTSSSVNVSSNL
Experimental: Intracellular Ca^2+ release measurement was carried out as described (Palanche et al., 2001, JBC 276:34853-34861; Vollmer et al., 1999, JBC 274:37915-37922) using indo-1 acetoxymethyl ester as the calcium probe. Cellular responses were recorded at 37° C. in stirred 1 mL cuvette with excitation set at 355 nm and emission set at 405 nm and 475 nm using a spectrofluorimeter. The human chemokines CCL5 and CXCL8 were purchased from Becton Dickinson Biosciences (San Jose, Calif.).
Intracellular Ca^2+ responses were measured using a spectrofluorimeter.
Values shown are mean calcium peak responses from duplicate experiments relative to chemokine only treated cells (100%).
Ca^2+ responses were recorded. […] In order to gain insight into compound selectivity, we next characterized the effect of the peptide on calcium responses of various chemokine/receptor pairs.

CXCR4 [1] = molecular target: T2, CXCR4 (Homo sapiens, UniProt P61073); test: CXCR4 internalization, confocal microscopy of HEK cells expressing EGFP-CXCR4; format: cell-based; design: expressed in transfected cells; host or cells: HEK293; conditions: 30 min, 37° C.
Source text: Upon stimulation with the appropriate chemokine, numerous G-protein-coupled receptors get internalized by clathrin-coated pits. As an antagonist of CXCR4 responses, ALB 408-423 may also alter chemokine induced CXCR4 receptor internalization. To analyze the antagonistic properties of ALB408-423 on CXCL12 mediated CXCR4 internalization, EGFP-CXCR4 receptor expressing cells were split and grown for 2 days in 24-well plates on 12-mm glass coverslips coated with rat type I collagen. The cells were then incubated for periods ranging from 0 to 30 min in HEPES-BSA buffer supplemented with protease inhibitors containing either 100 nM CXCL12 or 50 μM of ALB408-423 or 100 nM CXCL12 plus 50 μM of ALB408-423 at 37° C. […] Cells were then analyzed with an inverted microscope (LEICA) and a laser scanning confocal imaging system (LEICA AOBS SP2 MP) using a HCX PL APO 1bd.BL 63X 1.40 OIL UV objective (n° 506192). […] EGFP was excited with the 488 nm laser-line of the Argon laser and detected and amplified by one photomultiplier tube (PMT) in the so-called mCFP Channel from 495 to 550 nm (PMT1 610 High Voltage -HV-, offset 0). […]
FIG. 15. […] Receptor endocytosis was monitored on HEK cells expressing EGFP-CXCR4 and analyzed by confocal microscopy immediately (0 min, upper panel) after addition of CXCL12, ALB408-423 or both compounds, or 30 min later (lower panel). […]

CXCR4 [2] = molecular target: T2, CXCR4; test: Ca2+ mobilization in CXCR4 expressing HEK293 cells (indo-1); format: cell-based; design: expressed in transfected cells
Experimental: Ca^2+ responses were recorded.
FIG. 17. CXCR4 antagonistic activities of ALB derivatives. […] CXCR4 or CCR5 expressing HEK293 cells were treated with CXCR4 agonist CXCL12 (10 nM) or CCR5 agonist CCL5 (20 nM), respectively, in the absence (no ALB) or presence of indicated ALB derivatives (50 μM). Calcium responses were recorded as described. Data shown are mean values±standard deviation derived from duplicates relative to peak calcium responses after treatment with agonists only (100%). […] CXCR4 expressing HEK293 cells were treated with Texas Red labeled CXCL12 (CXCL12-Tr) in the presence or absence of ALB peptides. Real-time fluorescence monitoring of ligand-receptor interactions was carried out as described. Shown are bound CXCL12-Tr levels in the presence of ALB peptides relative to CXCL12-Tr only treated cells (100% bound). Values were derived from a duplicate experiment.

T2 sequence (P61073 whole entry): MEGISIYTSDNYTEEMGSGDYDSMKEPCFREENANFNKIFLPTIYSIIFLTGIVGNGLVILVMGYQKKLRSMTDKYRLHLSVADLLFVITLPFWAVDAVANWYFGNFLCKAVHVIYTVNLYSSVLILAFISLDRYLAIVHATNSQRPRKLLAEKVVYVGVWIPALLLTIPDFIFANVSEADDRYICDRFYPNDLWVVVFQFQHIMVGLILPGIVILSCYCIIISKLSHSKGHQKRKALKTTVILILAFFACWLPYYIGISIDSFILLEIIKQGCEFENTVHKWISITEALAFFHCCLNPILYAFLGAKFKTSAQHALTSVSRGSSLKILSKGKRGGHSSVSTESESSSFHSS

LVRYTKKVPQVSTPTL [ALB408-423, LVRYTKKVPQVSTPTL]
effect on CXCL8-evoked calcium responses (CXCR1; HEK EGFP-CXCR1 cells): no effect
agonism: calcium response induced by the peptide alone, CXCR1 (CXCR1; no chemokine): does not induce any calcium response
effect on CXCL12 mediated CXCR4 internalization (CXCR4 [1]; 100 nM CXCL12 plus 50 μM peptide): blocked CXCL12 mediated CXCR4 internalization
CXCR4 internalization by the peptide alone (CXCR4 [1]; 50 μM): did not induce internalization of the receptor
pKi (CXCR4 [2]): 4.33
inhibition of CXCL12-evoked calcium responses (CXCR4 [2]; 50 μM peptide, HEK EGFP-CXCR4 cells): 70%
agonism: calcium response induced by the peptide alone, CXCR4 (CXCR4 [2]; 50 μM peptide, no chemokine): does not induce any calcium response
